Reference: patent publication US9540299B2, “MTOR-independent activator of TFEB for autophagy enhancement and uses thereof” (Hong Kong Baptist University, priority 2015, dated 2017)

System: N2a cells
Assay: LC3-II levels by western blot in N2a cells (autophagy induction)
Assay type: cell-based, mouse
Conditions: for LC3-II levels in the presence of chloroquine compared with CQ treatment alone / LC3-II levels compared to the vehicle control: 12 h; for LC3-II levels in the presence of chloroquine compared with CQ treatment alone / LC3-II levels compared to the vehicle control / LC3-II levels in cells depleted of Atg5 by siRNA: analogs 1 μM; for LC3-II levels in the presence of chloroquine compared with CQ treatment alone: CQ 20 μM; for LC3-II levels compared to the vehicle control / LC3-II levels in cells depleted of Atg5 by siRNA: curcumin 10 μM; for LC3-II levels compared to the vehicle control: vs 0.1% DMSO; for LC3-II levels in cells depleted of Atg5 by siRNA: siAtg5 72 h then compound 12 h
Method: N2a cells were treated with curcumin (Cur, 10 μM) and its analogs (1 μM) for 12 h (FIG. 2A). N2a cells were treated with Cur (10 μM), analogs A2, B3 and C1 (1 μM) with or without chloroquine (CQ, 20 μM) for 12 h (FIG. 2B). N2a cells were transfected with non-target siRNA (siNT) or Atg5 siRNA (siAtg5, 50 nM) for 72 h and then treated with Cur (10 μM) and analogs A2, B3 and C1 (1 μM) for 12 h (FIG. 2C). The expression of LC3-II is determined by western blot. Relative intensity is normalized to that of ACTB/β-actin. Data are presented as the mean±SD from three independent experiments. *p<0.05 vs. the control (0.1% DMSO); #p<0.05 vs. CQ treatment alone. N. S.=not significant.
(§1) N2a cells are treated with curcumin E series analogs (1 μM) for 12 hours. The expression of LC3-II is shown in Western blot (FIG. 13A). LC3-II relative intensity is normalized to that of ACTB/β-actin. Quantification data (FIG. 13B) are presented as the mean±SD from three independent experiments. *p<0.05 vs. the control (0.1% DMSO).
as §1, with “E2, E3 and E4” for “curcumin E series analogs”, “(1 μM) in the presence or absence of chloroquine (CQ, 20” for “(1”, “14A).” for “13A).”, “14B)” for “13B)”, “DMSO); ^#p<0.05 vs. CQ treatment alone.” for “DMSO).”
as §1, with “E4” for “curcumin E series analogs (1 μM)”, “determined by” for “shown in”, “blotting” for “blot”, “20A).” for “13A).”, “20B)” for “13B)”, “*p<0.05, **p<0.01” for “*p<0.05”
N2a cells are transfected with non-target siRNA (Si-NT) and TFEB siRNA. The levels of TFEB is examined by Western blotting (FIG. 27A) analysis and quantified (FIG. 27B). The effects of knock-down the expression of TFEB on the expression of LC3-II levels induced by E4 (1 μM) is also examined by Western blotting (FIG. 27C). Quantification data are presented as the mean±SD from three independent experiments (FIG. 27D). *p<0.05 vs. the control (0.1% DMSO), # p<0.05 vs. CQ alone.
N2a, Hela and Hela cells stably expressing 3×-Flag-TFEB are cultured in DMEM supplemented with 10% FBS. SH-SY5Y cells are cultured in DMEM/F12 supplemented with 10% FBS. For drug treatment, the full medium is replaced by fresh Opti-MEM I and then the compounds (in 0.1% DMSO) are added to the cells and incubated for 12 h. Inducible PC12 cells overexpressing SNCA (WT and A53T) (a kind gift from Prof. David C. Rubinsztein at Cambridge University) are grown in DMEM supplemented with 10% horse serum, 5% FBS, 50 μg/ml G418, and 150 μg/ml hygromycin B at 37° C., 10% CO2. Cells are treated with 2 μg/ml doxycycline (Dox) for 24 h to induce SNCA expression. The full medium is changed to Opti-MEM I containing the testing compounds for another 48 h.
Mouse Atg5 siRNA (25 nM) or human TFEB (100 nM) siRNA and the non-target siRNAs are transfected with Lipofectamine RNAiMAX (13778030, Invitrogen) and incubated at 37° C. for 72 h.
Cells are lysed on ice in 1× Lysis Buffer (9803, Life Technologies) with complete protease inhibitor mixture (04693124001, Roche Applied Science). Animal tissues are homogenized in nine volumes of ice-cold PBS supplemented with protease inhibitors. Cytosolic and nuclear fractions are isolated using protocols similar to those described previously. Anti-Flag or TFEB antibody is added to the whole cell lysates and Dynabeads® Protein G (10003D, Life Technologies) is used for immunoprecipitation. Proteins are separated by 10-15% SDS-PAGE, transferred, and blotted with the antibodies described. The blots are then incubated with secondary antibodies or the Clean-Blot IP Detection Reagent (21230, Thermo Scientific) at room temperature for 1 h. The protein signals are detected by ECL kit (32106, Pierce) and quantified using ImageJ software. […]

Compound	expression of LC3-II, dose-dependent (0-1 μM, 12 hours, dose-dependent manner)	autophagy-enhancing effect, comparison among E series compounds tested (1 μM, 12 hours)	LC3-II levels in the presence of chloroquine compared with CQ treatment alone	LC3-II levels compared to the vehicle control	LC3-II levels compared with the control in cells transfected with non-target siRNA (Si-NT, 1 μM)	induced autophagy (LC3-II levels) after knock-down of TFEB (TFEB siRNA, 1 μM)	LC3-II levels in cells depleted of Atg5 by siRNA	LC3-II levels plus CQ compared with CQ treatment alone in cells transfected with non-target siRNA (Si-NT, with CQ)
O=C(/C=C/c1ccccc1I)/C=C/c1ccccc1I [E4]	significantly increase	best autophagy-enhancing effect	further increase	significantly increase	significantly increases	attenuated		
COc1cc(/C=C/C(=O)CC(=O)/C=C/c2ccc(O)c(OC)c2)ccc1O [curcumin, Curcumin, reference compound]				significantly increase			failed to increase	
O=C(/C=C/c1ccccc1Cl)/C=C/c1ccccc1Cl [E2]			further increase	significantly increase				
O=C(/C=C/c1ccc(O)cc1)/C=C/c1ccc(O)cc1 [B3, 1,5-bis(4-hydroxyphenyl)penta-1,4-dien-3-one]			further increase	significantly increase			failed to increase	
COc1ccccc1/C=C/C(=O)/C=C/c1ccccc1OC [C1, 1,5-bis(2-methoxyphenyl)penta-1,4-dien-3-one]			further increase	significantly increase			failed to increase	further increased
O=C(/C=C/c1cccc(C(F)(F)F)c1)/C=C/c1cccc(C(F)(F)F)c1 [A2, 1,5-bis(3-(trifluoromethyl)phenyl)penta-1,4-dien-3-one]			further increase	significantly increase			failed to increase	
O=C(/C=C/c1ccccc1Br)/C=C/c1ccccc1Br [E3]			further increase	significantly increase				
